Data as given in ChEMBL document CHEMBL1130884, “Synthesis of novel antifungal agents (2)” (1998).
Converted amounts (≈) assume the structure as drawn.

Columns and labels:
Aspergillus fumigatus = test: Compound was tested in vitro for antifungal activity against Aspergillus fumigatus (CF1003); assay type: functional
Cryptococcus neoformans = test: Compound was tested for in vitro antifungal activity against Cryptococcus neoformans (CY1057)
Mus musculus = test: Compound was tested for antifungal activity by measuring systemic candidosis in mice on 7th day upon single peroral administration; assay type: functional; details: po
Candida albicans = test: Compound was tested for in vitro antifungal activity against Candida albicans (CY3003); assay type: functional

Structure (SMILES)	IC80 (Aspergillus fumigatus)	IC80 (Cryptococcus neoformans)	ED50 (Mus musculus)	IC80 (Candida albicans)
CO[C@@H]1[C@@H](Cn2cncn2)[C@H](COc2ccc(OC(C)(C)C)cc2)CC[C@@]1(C)CCSc1nccn1C	36 µg/mL (≈ 68.2 µM)	0.9 µg/mL (≈ 1.71 µM)	50 mg/kg	0.5 µg/mL (≈ 0.947 µM)
COC1[C@@H](Cn2cncn2)[C@H](COc2ccc(OC(C)(C)C)cc2)CC[C@@]1(C)CCS(C)(=O)=O (stereo partly specified)	> 200 µg/mL	0.38 µg/mL (≈ 0.77 µM)	50 mg/kg	0.7 µg/mL (≈ 1.42 µM)
CO/N=C1/[C@@H](Cn2cncn2)[C@H](COc2ccc(OC(C)(C)C)cc2)CC[C@@]1(C)CCSc1ncccn1	2.6 µg/mL (≈ 4.83 µM)	1.1 µg/mL (≈ 2.04 µM)	> 100 mg/kg	0.85 µg/mL (≈ 1.58 µM)
COC1[C@@H](Cn2cncn2)[C@H](COc2ccc(OC(C)(C)C)cc2)CC[C@@]1(C)CCn1ccnc1 (stereo partly specified)	84 µg/mL (≈ 174 µM)	0.24 µg/mL (≈ 0.498 µM)	50 mg/kg	0.08 µg/mL (≈ 0.166 µM)
COCC[C@]1(C)CC[C@@H](COc2ccc(OC(C)(C)C)cc2)[C@H](Cn2cncn2)/C1=N/OC	0.6 µg/mL (≈ 1.31 µM)	1 µg/mL (≈ 2.18 µM)	> 100 mg/kg	0.05 µg/mL (≈ 0.109 µM)
COC1[C@@H](Cn2cncn2)[C@H](COc2ccc(OC(C)(C)C)cc2)CC[C@@]1(C)CCN1CCOCC1 (stereo partly specified)	158 µg/mL (≈ 316 µM)	0.02 µg/mL (≈ 0.0399 µM)	50 mg/kg	0.03 µg/mL (≈ 0.0599 µM)
CSCC[C@]1(C)CC[C@@H](COc2ccc(OC(C)(C)C)cc2)[C@H](Cn2cncn2)/C1=N/O	0.45 µg/mL (≈ 0.977 µM)	21 µg/mL (≈ 45.6 µM)	> 100 mg/kg	0.18 µg/mL (≈ 0.391 µM)
CO/N=C1/[C@@H](Cn2cncn2)[C@H](COc2ccc(OC(C)(C)C)cc2)CC[C@@]1(C)CCn1ccnc1	4.6 µg/mL (≈ 9.3 µM)	13 µg/mL (≈ 26.3 µM)	> 100 mg/kg	0.22 µg/mL (≈ 0.445 µM)
OC(Cn1cncn1)(Cn1cncn1)c1ccc(F)cc1F [FLUCONAZOLE]	> 200 µg/mL	3.6 µg/mL (≈ 11.8 µM)	5.4 mg/kg	1.4 µg/mL (≈ 4.57 µM)
